These are literature values, as cited in patent US20240398651A1 (Neuro-Innovators, LLC., priority 2021, published 2024).

The conditions of data set [1]: in vivo.
The conditions of data set [2]: previous clinical trials, compared with aspirin.

In the case of `O=C1CCc2cc(OCCCCc3nnnn3C3CCCCC3)ccc2N1` [Cilostazol], the elimination half-life in data set [1] was 11 to 13 h. In data set [2], the hemorrhagic events entry was “fewer hemorrhagic events” and the “incidence of recurrent stroke” value is listed as “significantly reduce the incidence of recurrent stroke”.
